Columns and labels:
Type in all cases: cell-based
PC12 cells [1] = experiment: MTT assay and microscopy, tunicamycin (Tm)-induced cytotoxicity in PC12 cells; conditions: for cell death and cell growth induced by Tm (microscopic observations): PC12 cells pre-treated with 50 μM, FIG. 12A; for Tm-induced PC12 cell toxicity (MTT assay): pre-treatment 12.5, 25, 50 μM for 12 h, then Tm 48 h, FIG. 12B
Protocol: (§1) In one example embodiment, effects of the Sativamide A and the Sativamide B ER stress-induced neurotoxicity on a neuroblastoma cell model (PC12 cells) are tested. PC-12 cells are purchased from the American Type Culture Collection (ATCC). PC-12 cells are cultured in DMEM medium (Invitrogen) supplemented with 100 U/ml penicillin, 100 μg/mL streptomycin, and 10% horse serum and 5% fetal bovine serum (Gibco, Carlsbad, USA). The cells are incubated at 37° C. in a humidified atmosphere of 5% CO2 and 95% air. PC12 cells are seeded into 96-well culture plates (5.0×10^3 cells/well) and cultured under standard conditions for 12 h. Cells are then treated with the Sativamide A and the Sativamide B at concentrations of 12.5 μM, 25 μM and 50 μM or a vehicle for another 12 h. After treatment, the whole medium is replaced with fresh medium containing tunicamycin (Tm) (0.1 nM or 1.0 μM) or thapsigargin (Tg) (10 nM or 100 nM) and the cells are incubated for additional 48 h. After incubation, supernatant is changed by fresh medium and thiazolyl blue tetrazolium bromide (MTT) is given at a concentration of 0.5 mg/mL. After incubation at 37° C. for 4 h, the absorbance is measured at 570 nm with a micro-plate reader.

PC12 cells [2] = experiment: MTT assay, thapsigargin (Tg)-induced cytotoxicity in PC12 cells; conditions: pre-treatment 12.5, 25, 50 μM for 12 h, then Tg 48 h; FIG. 12C
Protocol: as §1

PC12 cells [3] = experiment: Effect of the compounds on viability of PC12 cells; conditions: final concentration 50 μM, FIGS. 12A to 12C
Protocol: as §1

SH-SY5Y cells [4] = experiment: MTT assay, Tm-induced cytotoxicity in SH-SY5Y cells (FIG. 13B); conditions: pre-treatment 12.5, 25, 50 μM for 12 h, then inducer 48 h
Protocol: (§2) In one example embodiment, effects of the Sativamide A and the Sativamide B on ER stress-induced neurotoxicity on a neuroblastoma cell models (SH-SY5Y cells) are tested. SH-SY5Y cells are purchased from the American Type Culture Collection (ATCC). SH-SY5Y cells are cultured in 1:1 mixture of DMEM and F12 medium containing 10% fetal bovine serum (Gibco, Carlsbad, USA). SH-SY5Y cells are incubated at 37° C. in a humidified atmosphere of 5% CO2 and 95% air. SH-SY5Y cells are seeded into 96-well culture plates (5.0×10^3 cells/well) and cultured under standard conditions for 12 h. Cells are then treated with the Sativamide A and the Sativamide B at concentrations of 12.5 μM, 25 μM and 50 μM or a vehicle for another 12 h. After treatment, the whole medium is replaced with fresh medium containing Tm (0.1 or 1.0 μM) or Tg (10 or 100 nM) and cells are incubated for additional 48 h. After incubation, supernatant is changed by fresh medium and MTT is given at a concentration of 0.5 mg/mL. After incubation at 37° C. for 4 h, the absorbance is measured at 570 nm with a micro-plate reader.

SH-SY5Y cells [5] = experiment: MTT assay and microscopy, Tg-induced cytotoxicity in SH-SY5Y cells; conditions: for Tg-induced cell death and cell growth (microscopic observations): SH-SY5Y cells pre-treated with 50 μM, FIG. 13A; for ER stress-mediated Tg-induced cytotoxicity in SH-SY5Y cells (MTT assay): pre-treatment 12.5, 25, 50 μM for 12 h, then Tg 48 h, FIG. 13C
Protocol: as §2

SH-SY5Y cells [6] = experiment: Effect of the compounds on viability of SH-SY5Y cells; conditions: final concentration 50 μM, FIGS. 13A to 13C
Protocol: as §2

| Structure (SMILES) | cell death and cell growth induced by Tm (microscopic observations) (PC12 cells [1]) | Tm-induced PC12 cell toxicity (MTT assay) (PC12 cells [1]) | ER stress-mediated cytotoxicity in PC12 cells induced by Tg (MTT assay) (PC12 cells [2]) | adverse effects on cell viability (PC12 cells [3]) | Tg-induced SH-SY5Y cell toxicity (MTT assay, FIG. 13B) (SH-SY5Y cells [4]) | Tg-induced cell death and cell growth (microscopic observations) (SH-SY5Y cells [5]) | ER stress-mediated Tg-induced cytotoxicity in SH-SY5Y cells (MTT assay) (SH-SY5Y cells [5]) | adverse effects on cell viability (SH-SY5Y cells [6]) |
| --- | --- | --- | --- | --- | --- | --- | --- | --- |
| O=C(NCCc1ccc(O)cc1)C1=C[C@]23C=CC(=O)[C@@]2(O)c2cc(O)c(O)cc2[C@@H]3[C@H]1C(=O)NCCc1ccc(O)cc1 [Sativamide A] | markedly reduced | mitigate the Tm-induced PC12 cell toxicity in a dose-dependent manner | suppress ER stress-mediated cytotoxicity in PC12 cells that is induced by Tg in a dose-dependent manner | no adverse effects on cell viability | mitigate the Tg-induced SH-SY5Y cell toxicity in a dose-dependent manner | markedly reduced | suppress ER stress-mediated Tg-induced cytotoxicity in SH-SY5Y cells tin a dose-dependent manner | no adverse effects on cell viability |
| CO[C@]12C(=O)C=C[C@]13C=C(C(=O)NCCc1ccc(O)cc1)[C@H](C(=O)NCCc1ccc(O)cc1)[C@@H]3c1cc(O)c(O)cc12 [Sativamide B, 10-methoxyl-sativamide A] | markedly reduced | mitigate the Tm-induced PC12 cell toxicity in a dose-dependent manner | suppress ER stress-mediated cytotoxicity in PC12 cells that is induced by Tg in a dose-dependent manner | no adverse effects on cell viability | mitigate the Tg-induced SH-SY5Y cell toxicity in a dose-dependent manner | markedly reduced | suppress ER stress-mediated Tg-induced cytotoxicity in SH-SY5Y cells tin a dose-dependent manner | no adverse effects on cell viability |

Source: US10155721B2, “Lignanamides and a method of treating neurodegenerative diseases by using the same” (Macau University of Science and Technology, priority 2017, dated 2018)
